Reference: article PMC12985355 (Journal of the American Chemical Society, 2025)
Where two headings read alike, the source gives them in different places.

How the values were obtained:
CntL = CntL (Staphylococcus aureus, UniProt A0A0H3JXA8); assay: thermal shift assay; format: binding
[1] = target: T1, NAT (SAM:nocardicin 3-ACP transferase) (Nocardia uniformis, UniProt Q9RAH6); assay: thermal shift assay; format: binding; conditions: binds to a similar extent as SAM; no turnover with nocardicin E
T1 sequence (Q9RAH6 1-301): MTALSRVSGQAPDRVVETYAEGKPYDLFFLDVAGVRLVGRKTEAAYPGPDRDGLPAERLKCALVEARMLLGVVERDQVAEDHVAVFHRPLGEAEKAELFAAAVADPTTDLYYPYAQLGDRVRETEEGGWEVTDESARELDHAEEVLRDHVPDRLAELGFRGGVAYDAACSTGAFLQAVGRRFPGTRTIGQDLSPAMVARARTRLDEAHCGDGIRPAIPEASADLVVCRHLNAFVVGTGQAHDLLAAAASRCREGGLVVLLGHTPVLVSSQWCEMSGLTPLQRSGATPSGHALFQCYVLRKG

[2] = target: T1, NAT (SAM:nocardicin 3-ACP transferase); assay: thermal shift assay; format: binding; conditions: further addition to enzyme with nocardicin E (2)
[3] = target: T1, NAT (SAM:nocardicin 3-ACP transferase); assay: 3-ACP transfer, LC-MS; format: biochemical; conditions: SAM as co-substrate; very low yield

Chain of CntL (A0A0H3JXA8 whole entry): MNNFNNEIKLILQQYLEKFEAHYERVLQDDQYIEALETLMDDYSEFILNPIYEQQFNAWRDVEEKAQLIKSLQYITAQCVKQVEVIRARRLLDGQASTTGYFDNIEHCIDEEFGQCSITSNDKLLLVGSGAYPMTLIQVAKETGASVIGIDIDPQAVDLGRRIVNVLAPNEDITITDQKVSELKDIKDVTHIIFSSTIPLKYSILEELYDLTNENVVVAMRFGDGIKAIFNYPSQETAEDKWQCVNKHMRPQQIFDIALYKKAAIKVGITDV

SMILES: N[C@H](Cc1c[nH]cn1)C(=O)O [D-histidine]
- melting point (CntL; with SAM present, no shift with da-SAM): the melting point increased when CntL was combined with SAM and D-his

SMILES: C[S+](CCCC(=O)[O-])C[C@H]1O[C@@H](n2cnc3c(N)ncnc32)[C@H](O)[C@@H]1O (stereo partly drawn) [deamino-SAM]
- melting temperature [1]: deamino-SAM can bind to the enzyme to a similar extent as SAM

SMILES: C[S+](CC[C@H](N)C(=O)O)C[C@H]1O[C@@H](n2cnc3c(N)ncnc32)[C@H](O)[C@@H]1O (stereo partly drawn) [SAM]
- increase in melting temperature [2]: 7 °C
- melting point (CntL): da-SAM can bind to the enzyme to the same extent as SAM

SMILES: CC1=C(C(=O)O)N2C(=O)[C@@H](NC(=O)[C@H](N)c3ccc(O)cc3)[C@H]2SC1 [cefadroxil]
- 3-ACP transfer, LC-MS [3]: NAT accepted both of them, to produce the 3-ACP-β-lactam products

SMILES: CC1(C)S[C@@H]2[C@H](NC(=O)[C@H](N)c3ccc(O)cc3)C(=O)N2[C@H]1C(=O)O [amoxicillin]
- 3-ACP transfer, LC-MS [3]: NAT accepted both of them, to produce the 3-ACP-β-lactam products
